The values that follow come from patent US20090011410A1, “METHOD FOR TAILORING ADMINISTRATION OF DRUGS BY QUANTITATION OF MRNA” (priority 2004, published 2009).

The assay concerns NOXA mRNA. Put plainly: drug-induced NOXA mRNA expression in whole blood of healthy adults (SYBR green PCR screen). As to conditions: 20 μM BLM or 100 μM VP-16, 4 hours at 37° C.; degree less than PUMA (FIG. 6). Type of assay: cell-based, human. As to the method: In 8-well strip microtubes, 1.4 μl of 50× concentrations of drugs or controls (phosphate buffered saline (PBS) or DMSO) were added, and stored at −20° C. until use. […] Seventy μl of fresh heparinized whole blood was added into each well in triplicate, and incubated at 37° C. for 2-8 hours with the cap closed. For radiation treatment, blood was stimulated at designated doses using cesium-137. After each treatment, 50 μl of whole blood was transferred to filterplates as described below.
The mRNA and cDNA were prepared from whole blood. In brief, home-made 96-well filterplates were placed over collection plates, and 150 μl 5 mM Tris, pH 7.4, was applied. Following centrifugation at 120×g for 1 min at 4° C., 50 μl of blood samples were applied to each well and immediately centrifuged at 120×g for 2 min at 4° C., followed by washing of each well with 300 μl PBS once with centrifugation at 2000×g for 5 min at 4° C. […] The Ct was determined by analytical software (SDS, ABI). […]
Quantitation of various mRNAs was conducted using the following method. […]

`COc1cc([C@@H]2c3cc4c(cc3[C@@H](O[C@@H]3O[C@@H]5CO[C@@H](C)O[C@H]5[C@H](O)[C@H]3O)[C@H]3COC(=O)[C@H]23)OCO4)cc(OC)c1O` [VP-16, etoposide]: the NOXA induction entry is listed as “induced in all individuals”.

As to bleomycin [BLM], the NOXA induction entry is listed as “induced in all individuals”.
